Assay results taken from ChEMBL document CHEMBL1201862, “PubChem BioAssay data set” (2004).
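96-well plates; 48 h exposure; 5 concentrations. Endpoints by linear interpolation between flanking doses. Not reached: highest tested concentration assigned. At the GI50, growth is halved.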 The source made the active and inactive calls. Rule as the data show it: active = GI50 up to about 1.1 µM and inactive = higher.

Columns and labels:
Test in all cases: DTP human tumour cell line panel, 48 h
DU-145 = test system: DU-145
KM12 = test system: KM12
SNB-75 = test system: SNB-75
HL-60 = test system: HL-60
OVCAR-8 = test system: OVCAR-8
SF-295 = test system: SF-295
PC-3 = test system: PC-3
T47D = test system: T47D
SR = test system: SR
MDA-MB-231 = test system: MDA-MB-231
MDA-MB-435 = test system: MDA-MB-435
BT-549 = test system: BT-549
Hs-578T = test system: Hs-578T
UACC-257 = test system: UACC-257
MDA-N = test system: MDA-N
NCI/ADR-RES = test system: NCI/ADR-RES
786-0 = test system: 786-0
OVCAR-3 = test system: OVCAR-3
KM-20L2 = test system: KM-20L2
M19-MEL = test system: M19-MEL

| SMILES | GI50 (DU-145) | GI50 (KM12) | GI50 (SNB-75) | GI50 (HL-60) | GI50 (OVCAR-8) | GI50 (SF-295) | GI50 (PC-3) | GI50 (T47D) | GI50 (SR) | GI50 (MDA-MB-231) | GI50 (MDA-MB-435) | GI50 (BT-549) | GI50 (Hs-578T) | GI50 (UACC-257) | GI50 (MDA-N) | GI50 (NCI/ADR-RES) | GI50 (786-0) | GI50 (OVCAR-3) | GI50 (KM-20L2) | GI50 (M19-MEL) |
| --- | --- | --- | --- | --- | --- | --- | --- | --- | --- | --- | --- | --- | --- | --- | --- | --- | --- | --- | --- | --- |
| COc1ccc(CC[N+]2(C)COc3cc4oc(=O)cc(C)c4cc3C2)cc1OC (stereo not given) | > 100 µM (inactive) | > 100 µM (inactive) | > 100 µM (inactive) | > 100 µM (inactive) | > 100 µM (inactive) | > 100 µM (inactive) | > 100 µM (inactive) | > 100 µM (inactive) | 0.0782 µM (active) | > 100 µM (inactive) | > 100 µM (inactive) | > 100 µM (inactive) | > 100 µM (inactive) | > 100 µM (inactive) | > 100 µM (inactive) | > 100 µM (inactive) | > 100 µM (inactive) | > 100 µM (inactive) |  |  |
| CSc1nc2c(c(O)c(C)c(=O)n2C2OCC(OC(C)=O)C(OC(C)=O)C2OC(C)=O)c(=O)n1C (stereo not given) |  | > 100 µM (inactive) | > 100 µM (inactive) | > 100 µM (inactive) | > 100 µM (inactive) | > 100 µM (inactive) |  |  | > 100 µM (inactive) |  |  |  |  | > 100 µM (inactive) |  |  | > 100 µM (inactive) | > 100 µM (inactive) | > 100 µM (inactive) | > 100 µM (inactive) |
| CCOC(=O)c1ccc(N2C(=O)/C(=C/c3ccc(N(CCC#N)CCC#N)cc3)N=C2c2cc([N+](=O)[O-])ccc2Cl)cc1 |  | > 100 µM (inactive) |  |  | > 100 µM (inactive) | > 100 µM (inactive) |  |  | > 100 µM (inactive) |  |  |  |  |  |  |  |  | > 100 µM (inactive) | > 100 µM (inactive) | > 100 µM (inactive) |
| CCOC(=O)/C(C#N)=C\c1ccc(N(CCC(=O)O)CCC(=O)O)c(I)c1 | > 10 µM (inactive) | > 10 µM (inactive) | > 10 µM (inactive) | > 10 µM (inactive) | > 10 µM (inactive) | > 10 µM (inactive) | > 10 µM (inactive) | > 10 µM (inactive) | > 10 µM (inactive) | > 10 µM (inactive) | > 10 µM (inactive) | > 10 µM (inactive) | > 10 µM (inactive) | > 10 µM (inactive) | > 10 µM (inactive) | > 10 µM (inactive) | > 10 µM (inactive) |  |  |  |
| CC1=NN(C(=O)c2ccc(C)cc2)C(=O)C1/N=N/c1ccccc1C(=O)O (stereo not given) |  | > 100 µM (inactive) | > 37.7 µM (inactive) | > 62.7 µM (inactive) | > 74.5 µM (inactive) | > 92.3 µM (inactive) |  |  |  |  |  |  |  | > 100 µM (inactive) |  | > 100 µM (inactive) |  | > 89.1 µM (inactive) | > 100 µM (inactive) | > 100 µM (inactive) |
| COc1ccccc1/C=C1\Sc2scc(-c3cccc([N+](=O)[O-])c3)[n+]2C1=O | 13.5 µM (inactive) | 10.8 µM (inactive) | 12.8 µM (inactive) | 0.26 µM (active) | 7.19 µM (inactive) | 17.5 µM (inactive) | 15.7 µM (inactive) | 7.23 µM (inactive) | 2.19 µM (inactive) | 5.04 µM (inactive) | 4.99 µM (inactive) | 2.55 µM (inactive) | 18.5 µM (inactive) | 7.11 µM (inactive) | 2.87 µM (inactive) | 6.84 µM (inactive) | 2.76 µM (inactive) | 9.75 µM (inactive) |  |  |
| OCC(O)COc1ccc(Br)cc1 (stereo not given) |  | > 100 µM (inactive) | > 100 µM (inactive) | > 100 µM (inactive) | > 100 µM (inactive) | > 100 µM (inactive) |  |  | 0.0166 µM (active) |  |  |  |  | > 100 µM (inactive) |  |  |  | > 100 µM (inactive) | > 100 µM (inactive) |  |
| CC(=O)c1ccc(Oc2ccc(/C(C)=N\N=C(N)N)cc2)cc1 |  |  | 1.47 µM (inactive) |  | 3.12 µM (inactive) | 2.38 µM (inactive) |  |  |  |  |  |  |  | 5.68 µM (inactive) |  |  |  | 1.99 µM (inactive) | 1.71 µM (inactive) |  |
| CCCCCCCCCCCCCCCc1ccc(OCC(O)CO)cc1 (stereo not given) |  | 17.2 µM (inactive) | 27 µM (inactive) | 27.7 µM (inactive) | 25.7 µM (inactive) | 50.1 µM (inactive) |  |  | > 100 µM (inactive) |  |  |  |  | 38.8 µM (inactive) |  |  |  | 23 µM (inactive) | 31.6 µM (inactive) | 18 µM (inactive) |
| COc1ccc(OC)c(/C=C/C(=O)C(C)(C)C)c1 |  | 21.1 µM (inactive) | 26 µM (inactive) | 14.7 µM (inactive) | 15.7 µM (inactive) | 25 µM (inactive) |  |  |  |  |  |  |  |  |  |  | 19.5 µM (inactive) | 23.3 µM (inactive) | 23.6 µM (inactive) | 16.3 µM (inactive) |
| COc1cc2cc[n+]3c(C)c4cc(OC)c(OC)cc4c([O-])c3c2cc1OC |  | 70.1 µM (inactive) | 33 µM (inactive) | 16.9 µM (inactive) | > 100 µM (inactive) | > 100 µM (inactive) |  |  | 61 µM (inactive) |  |  |  |  | 30.8 µM (inactive) |  |  |  | 3.44 µM (inactive) | 53.2 µM (inactive) | 46.6 µM (inactive) |
| Cc1nn(-c2ccccc2)c(S)c1C(=O)c1ccccc1 |  | 33 µM (inactive) | 42.8 µM (inactive) | 32.1 µM (inactive) | 14.9 µM (inactive) | 35.2 µM (inactive) |  |  |  |  |  |  |  | 76.2 µM (inactive) |  |  |  |  | 53 µM (inactive) |  |
| CSc1cc(=O)n2c3ccccc3c3ccnc1c32 |  | > 82.2 µM (inactive) | > 69.3 µM (inactive) | > 100 µM (inactive) | > 67.9 µM (inactive) | > 65.2 µM (inactive) |  |  |  |  |  |  |  | > 54.5 µM (inactive) |  | 73.8 µM (inactive) |  | > 100 µM (inactive) | > 61.8 µM (inactive) | > 100 µM (inactive) |
| CC(C(=O)O)c1cnn(-c2ccccc2)c1-n1cccc1 (stereo not given) |  | > 100 µM (inactive) | > 100 µM (inactive) | > 100 µM (inactive) | > 100 µM (inactive) | > 100 µM (inactive) |  |  |  |  |  |  |  | > 100 µM (inactive) |  | > 100 µM (inactive) |  | > 63.7 µM (inactive) | > 100 µM (inactive) | > 100 µM (inactive) |
| C/C=C1\CCC2c3[nH]c4ccccc4c3CCN2C1 (stereo not given) |  | > 100 µM (inactive) | 61.7 µM (inactive) | 43.3 µM (inactive) | > 100 µM (inactive) | > 100 µM (inactive) |  |  | 55.5 µM (inactive) |  |  |  |  |  |  |  | 70.1 µM (inactive) | 35.8 µM (inactive) | 45.6 µM (inactive) | > 100 µM (inactive) |
| O=C1C(Cl)N(c2ccc(Cl)cc2)C1c1c[nH]c2ccccc12 (stereo not given) |  | 27 µM (inactive) | 19.1 µM (inactive) | 15.8 µM (inactive) | 31.3 µM (inactive) | 16.4 µM (inactive) |  |  | 9.18 µM (inactive) |  |  |  |  | 16.8 µM (inactive) |  |  |  | 17.6 µM (inactive) | 13.2 µM (inactive) | 24.3 µM (inactive) |
| O=C1C(CO)=C[C@H](O)[C@H]2O[C@@H]12 |  | 83.9 µM (inactive) | 335 µM (inactive) | 78.3 µM (inactive) | 137 µM (inactive) | 84.9 µM (inactive) |  |  |  |  |  |  |  | 158 µM (inactive) |  | 162 µM (inactive) |  | 177 µM (inactive) | 337 µM (inactive) | 120 µM (inactive) |
| CCOC(=O)C1=C(C)N(C2OC(COC(C)=O)C(OC(C)=O)C(OC(C)=O)C2OC(C)=O)C(=O)NC1c1ccccc1 (stereo not given) |  | > 100 µM (inactive) | 55 µM (inactive) | > 100 µM (inactive) | > 100 µM (inactive) | > 100 µM (inactive) |  |  | > 100 µM (inactive) |  |  |  |  | > 100 µM (inactive) |  |  |  | > 100 µM (inactive) | > 100 µM (inactive) | > 100 µM (inactive) |
| O=S1(=O)Cc2ccc3c4c2-c2c(ccc5ccc(c-4c25)CS(=O)(=O)C3)C1 | > 100 µM (inactive) | 41.9 µM (inactive) | 69.7 µM (inactive) | 16.3 µM (inactive) | 90.2 µM (inactive) | > 100 µM (inactive) | 93.1 µM (inactive) | 55.3 µM (inactive) | 10.2 µM (inactive) | > 100 µM (inactive) | > 100 µM (inactive) | 91.8 µM (inactive) | > 100 µM (inactive) | > 100 µM (inactive) | > 100 µM (inactive) | > 100 µM (inactive) | 49.5 µM (inactive) | > 100 µM (inactive) |  |  |
